Measured values: US20230002446A1, “ANTI-INFLAMMATORY AGENTS” (The University of Sydney, priority 2019, published 2023)
Where no end group is shown, it is not given here. [ ]: non-standard residue; d: D form. Ala(3-Me-diazirin-3-yl) = CC1(C[C@H](N)C(=O)O)N=N1; PEG = not defined here

Experiments:
C57BL/6 mice [1] = assay: imiquimod-induced psoriasis model; format: in vivo
Protocol: FIG. 4—Peptide administration reduces local disease severity in a mouse model of psoriasis. (A) Experimental outline (B) Clinical scores of mice receiving PBS or peptide RP23 (SEQ ID NO:12) injection, compared to daily (0-4 days) topical application of glucocorticoid on the back and ear. (C) Measures of disease local to the peptide RP23 injection site. Redness was measured using an unbiased erythema meter and skin thickness by manual callipers. (D) Spleen weight at day 5 as a measure of systemic immune suppression. […] Data are presented as mean±S.E.M. Statistical significance was determined by ANOVA with Dunnett's multiple comparison test, *p<0.05, **p<0.01, ***p<0.001, ****p<0.0001.
FIG. 10. Therapeutic synergy of RP23 and topical steroid in the murine imiquimod-induced psoriasis model. Aldara cream (5% imiquimod, 57.5 mgs) was applied daily (days 0-4) to the backs of C57BL/6 female mice to induce psoriasis. Clinical scores (PASI), modified psoriasis area and severity index) of mice receiving (A) PBS or RP23 injection at day −1, with or without topical application of glucocorticoid (0.05% betamethasone dipropionate, “BD” 30 mgs) on the back at day 0 (B) PBS or RP23 injection at day 1 and topical application of glucocorticoid at day 1, in comparison to PBS injection only at day −1. Data are the means+/−SEM (n=5). Statistical significance was determined by ANOVA with Dunnett's multiple comparison test to PBS only control, *p<0.05, **p<0.01, ***p<0.001, ****p<0.0001.
The backs of 8-week old female C57BL/6 mice (Australian BioResources) were coarse shaved. A minimum of 24 hours later, 10 nmol RP23 was delivered via sub-cutaneous injection at the lower back in 200 μl phosphate buffered saline (PBS). Groups of mice acting as positive controls for disease development received injection of PBS only. One or seven days later, psoriasis-like inflammation was induced via topical application of 5% imiquimod cream (Aldara, Inova Pharmaceuticals) to the shaved back (57.5 mgs) and one ear (5 mg, divided between dorsal and ventral sides). The contralateral ear served as a negative control for imiquimod-induced inflammation. Imiquimod application was repeated daily for four consecutive days. C57BL/6 mice experience rapid weight loss (up to 20%) upon application of imiquimod cream. Supportive care was provided in the form of dietary supplementation commenced 2 days prior to imiquimod application, and intra-peritoneal injection of 300 μl sterile PBS on days two and three of imiquimod application. Disease progression was monitored for five days, by recording weight loss and grading disease of the back skin using a modified Psoriasis Area and Severity Index (PASI) clinical scoring system, that assessed only disease severity. Additionally, erythema meter (DSM II ColorMeter, Cortex Technology, Denmark) readings were taken at four quadrants on the back skin and skin backfold thickness measurements were recorded using manual callipers. Disease progression of the ear skin was determined by recording ear thickness, measured by manual callipers. As a positive control for immune suppressive therapy, groups of mice received daily topical application of betamethasone dipropionate 0.05% (MSD) cream (30 mgs on the back, 10 mgs on the ear).
Aldara cream (5% imiquimod, 57.5 mgs) was applied daily (days 0-4) to the backs of C57BL/6 female mice to induce psoriasis. Clinical scores (PASI, modified psoriasis area and severity index) of mice receiving prophylactic PBS or RP23 (at day −1), with or without topical application of glucocorticoid (0.05% betamethasone dipropionate, 30 mgs) to the back at day 0, were determined (FIG. 10A).
RP23 and BD therapy were also tested when given synergistically at a therapeutic timepoint (at day 1). Psoriasis was induced as above, but clinical scores were determined daily for 10 days after ceasing imiquimod application at day 5, to record the rate and degree of psoriasis disease resolution (FIG. 10B).

C57BL/6 mice [2] = assay: contact hypersensitivity model (DNFB-induced contact dermatitis); format: in vivo; conditions: for specific increase in ear thickness: equivalent molar amount of 10 nmol RP23, subcutaneously at the abdomen (FIG. 9); for inflammatory response (ear thickness over 72 hours): 10 nmol subcutaneously at the abdomen, compared to PBS (FIG. 8)
Protocol: FIG. 2—Peptide administration reduces inflammation in a mouse model of contact dermatitis and reduces myeloid inflammatory infiltrate. (A) Experimental outline of DNFB-induced contact dermatitis. (B) Ear thickness of peptide RP23 (SEQ ID NO:12) treated mice, repeated 3 times. […] Data are presented as mean±S.E.M. Statistical significance was determined (B) by multiple t tests (C) by ANOVA with Dunnett's multiple comparison test, *p<0.05, **p<0.01, ***p<0.001.
FIG. 3—The peptide effect is dependent on the peptide sequence and dose. (A) PBS, scrambled peptide or peptide MUC1SP ([…]; SEQ ID NO: 3) was injected subcutaneously seven days prior to sensitising C57BL/6 mice (n=5) with DNFB on the abdomen. […] (B) A comparison of the immunosuppressive effect of peptide RP23 (SEQ ID NO:12) and MUC1SP (SEQ ID NO: 3). (C) SEQ ID NO:12 suppressed immunity in a dose dependent manner. (D) Addition of GM-CSF to the SEQ ID NO:12 injection abrogated the immune suppression. Data are the means±S.E.M.
FIG. 8—Effects of peptide variants on the inflammatory response. Mice received one injection of PBS or one of the following peptides (10 nmol) subcutaneously at the abdomen (A) peptide RP23 (SEQ ID NO: 12), peptide AF594-RP23 (SEQ ID NO: 21), peptide K4-G3-MUC1SP (SEQ ID NO:22) or MUC1SP C fragment (SEQ ID NO: 2). Five days later, mice were challenged with DNFB at a distal site, on the ears. The thickness of the ears was measured over 72 hours.
FIG. 9—Effects of further peptide variants, without N-terminal methionine, on the inflammatory response in a model of contact dermatitis. Mice received one injection of PBS, RP23 (SEQ ID NO:12) (10 nmol) or one of the peptide variants indicated in the table including SEQ ID NO: 32 and 35 as described herein (equivalent molar amount of RP23), subcutaneously at the abdomen. Photoleucine replaces leucine where indicated, these molecules used for photo-crosslinking studies. Seven days later, abdominal skin was sensitised with a contact irritant (DNFB) and five days later, mice were challenged with DNFB at a distal site, on the ears. (A) Specific increase in ear thickness over 72 hours, data are the means+/−SEM (n=6). Statistical significance was determined by ANOVA with Dunnett's multiple comparison test to PBS only control, **p<0.01. (B) Specific increase in ear thickness at 24 hours post-challenge. Data are the means+/−SEM (n=6). Statistical significance was determined by t-test to relevant control, as indicated, *p<0.05, **p<0.01, ns=not significant.
The abdomens of 8-week old female C57BL/6 mice (Australian BioResources) were coarse shaved. A minimum of 24 hours later, RP23 (SEQ ID NO:12) was delivered via sub-cutaneous injection at the abdomen in 50 μl phosphate buffered saline. Seven days later, mice were topically sensitised to 1-fluoro-2,4-dinitrobenzene (DNFB, 0.5 vol %) in olive oil/acetone (1:4, v/v, 30 μl) via application to the shaved abdomen. Five days after sensitisation, mice were challenged on the ears with topical DNFB (0.25 vol %) in olive oil/acetone (1:4, v/v, 15 μl per ear). Ear thickness was measured daily using manual callipers from immediately before challenge, up to 96 hours post challenge. Positive controls for ear swelling consisted of mice that were injected with PBS instead of RP23. Negative or irritant controls consisted of a group of mice that received the DNFB challenge, but not the sensitisation. The average of the change in ear thickness from this control group was subtracted from the change in ear thickness of other samples to account for non-specific irritation due to the application of DNFB, olive oil and acetone.
The inventors then conducted additional in vivo studies, using a model of contact hypersensitivity, to determine the portion of RP23 responsible for its immunomodulatory activity. Mice received one injection of peptide (10 nmol) subcutaneously at the abdomen, seven days prior to sensitisation of the skin with a contact irritant (DNFB). […]

C57BL/6 mice [3] = conditions: mouse, in vivo
Protocol: AF594-RP23^+ cells were identified by flow cytometry 24 hours after administration to C57BL/6 mice. (A) RP23 was injected subcutaneously at the lower back. […] (B) RP23 was delivered to the lungs by intranasal instillation. The percentage distribution of total RP23^+ leukocytes amongst immune cell subsets in the lungs is shown. Data are the means+/−SEM (n=4).
AF594-RP23+ cells were identified by flow cytometry 24 hours after administration to C57BL/6 mice.

[4] = daily topical 0.05% cream, 30 mgs back, 10 mgs ear

CCC(=O)OCC(=O)[C@@]1(OC(=O)CC)[C@@H](C)C[C@H]2[C@@H]3CCC4=CC(=O)C=C[C@]4(C)[C@@]3(F)[C@@H](O)C[C@@]21C [betamethasone dipropionate, reference compound]
spleen weight (C57BL/6 mice [1]; [4]): substantial reductions in spleen weight
weight loss (C57BL/6 mice [1]; [4]): greater degree of weight loss
clinical scores (PASI), protective effect as the disease progressed (C57BL/6 mice [1]; prophylactic: injection day -1, BD day 0, later time points): protective effect from BD alone was lost
systemic immune suppression / locality of effect (C57BL/6 mice [1]; spleen weight at day 5, distal ear thickness (FIG. 4d)): caused unwanted systemic immune suppression

(Gd)DOTA-KKKK-PEG-TPGTQSPFFLLLLLTVLTVV (KKKK[PEG]TPGTQSPFF[Ala(3-Me-diazirin-3-yl)][Ala(3-Me-diazirin-3-yl)][Ala(3-Me-diazirin-3-yl)][Ala(3-Me-diazirin-3-yl)][Ala(3-Me-diazirin-3-yl)]TVLTVV; not fully specified (N-terminus); reading uncertain; also: Gd chelated by DOTA; listed as Homo sapiens) [SEQ ID NO: 32]
specific increase in ear thickness (C57BL/6 mice [2]): confirmed

AF594-KKKK-PEG-MTPGTQSPFFLLLLLTVLTVV (KKKKMTPGTQSPFFLLLLLTVLTVV; AF594-KKKK-PEG N-terminal; (1)..(1) Alexa Fluor 594 backbone modification; (4)..(5) polyethylene glycol (PEG) backbone modification between residues 4 and 5; listed as Homo sapiens) [SEQ ID NO: 21]
cells capturing the peptide in the lung (C57BL/6 mice [3]): primarily captured by neutrophils, alveolar macrophages and DC
cells capturing the peptide in the skin (C57BL/6 mice [3]): primarily captured in the skin by neutrophils (CD11 b+Ly6G+) or CD11 b+ myeloid cell subsets
inflammatory response (ear thickness over 72 hours) (C57BL/6 mice [2]): led to a reduced inflammatory response

Biotin-KKKK-PEG-TPGTQSPFFLLLLL*TVLTVV, wherein L* is photoleucine [SEQ ID NO: 35]
specific increase in ear thickness (C57BL/6 mice [2]): confirmed

Biotin-KKKK-peg-QLTLTFVPSTLGFL*TLPVLV (no N-term Met) [scrambled variant of SEQ ID NO. 35, reference compound]
specific increase in ear thickness (C57BL/6 mice [2]): did not have a reduction in ear inflammation

KKKKGGGMTPGTQSPFFLLLLLTVLTVV (listed as Homo sapiens) [SEQ ID NO: 22]
inflammatory response (ear thickness over 72 hours) (C57BL/6 mice [2]): led to a reduced inflammatory response

LLLLLTVLTVV (listed as Homo sapiens) [SEQ ID NO: 2]
inflammatory response (ear thickness over 72 hours) (C57BL/6 mice [2]): led to a reduced inflammatory response

MTPGTQSPFFLLLLLTVLTVV (listed as Homo sapiens) [SEQ ID NO: 3]
ear swelling, sequence specificity (C57BL/6 mice [2]; subcutaneous seven days prior to sensitising with DNFB (FIG. 3a)): the effect was specific to the SEQ ID NO: 3 sequence
